Source: US8349835B2, “Aromatic ring fused triazine derivatives and uses thereof” (Shenyang Pharmaceutical University, priority 2008, dated 2013)

Legend:
Rat aortic ring = experiment: Rat Aortic Ring Assay; format: cell-based; details: for Rat Aortic Ring Assay (10 ug/ml), result in words: observed on the sixth day; for inhibition at 10 µg/mL: Rattus norvegicus, 10 ug/ml, compared with blank control, sixth day
From the text: Rat Aortic Ring Assay • 1) 6 week old SD […] (Sprague Dawley) were selected for the experiments. Cleaned abdominal skin with 75% ethanol to disinfect, and then anesthetized the mice with ether, • 2) Carefully removed the abdominal aortas and transferred the aortas to normal saline. Excessive vascular tissues were carefully removed with scissors. • 3) The aortas were rinsed with normal saline until no blood stain remained. • 4) Sectioned the aortas into one millimeter depth arterial slices with ophthalmological scissors. • 5) Add 50 μL pre-thawed Matrigel to each well of the pre-cooled 96 well cell culture plates, and embedded the ring-shaped mouse aortas in collagen gel. • 6) Incubated for 60 minutes at 37° C. to solidificate the gel. • 7) Added DMEM culture solution containing 10% FBS, along with different concentrations of the selected compounds into the wells and cultured in the incubator. Every compound was repeated in no less than 3 wells. • 8) Replaced with the fresh medium and changed the medicine once on the third day. • 9) Took out the pates on the sixth day, and observed the vascular growth with Microscope (OLYMPUS, DP70, Japan) and took photographs(×100). Randomly chose 3 arterial rings to photograph and calculated the area covered by micro-vascular with Image Pro Plus software. The inhibition rate is calculated as:
[formula] • Evaluation criteria: ⋆inhibition rate[…]; ⋆⋆inhibition rate 60-90%; ⋆⋆⋆inhibition rate>90%.

[1] = test system: Microvascular Endothelial Cells (MVEC); experiment: MTT growth inhibition of MVEC; format: cell-based; details: Endothelial cell, 96 h, 4 days culture with drug, read-out: IG50 on inhibiting growth of MVEC
Method: In Vitro Anti-Tumor Activity Test
Put cell suspension into centrifugal tubes with a pipette under sterile conditions, then the cell suspension was centrifuged for 3 minutes at 1300 rpm. Discarded the supernatant lightly and added fresh culture medium. Mixed the cells by pipetting, then transferred the cells into culture flasks, and put them into the CO2 incubator. Changed the culture medium once after 24 hours.
Human prostate cancer cells (DU145, PC-3) were cultured in a medium containing RPMI1640 basic medium supplemented with 10% heat-inactivated FBS, 100 IU/mL penicillin, 100 μg/mL streptomycin and 1 mmol/L L-glutamine. Human breast carcinoma cells (T47D, MDA-MB231) were cultured in a medium containing RPM11640 basic medium supplemented with 10% heat-inactivated FBS, 5 μg/mL insulin, 100 IU/mL penicillin, 100 μg/mL streptomycin and 1 mmol/L L-glutamine. Human breast carcinoma cells (MCF-7) were cultured in a medium containing DMEM basic medium supplemented with 10% heat-inactivated FBS, 5 μg/mL insulin, 100 IU/mL penicillin, 100 μg/mL streptomycin and […]. Murine Lewis lung cancer cells (LL/2), murine melanoma cells (B16FD) and Microvascular Endothelial Cells (MVEC) were cultured in a medium containing DMEM basic medium supplemented with 10% heat-inactivated FBS, 4.5 g/L glucose, 1.5 g/L NaHCO3, 100 IU/mL penicillin, 100 μg/mL streptomycin and 4 mmol/L L-glutamine. All these cell lines were incubated at 37° C. biochemical incubator with 5% CO2 saturated humidity.
After resuscitation, the cells were passed for 2-3 generations till they became stable, then they were used for the experiments. Each passage was based on the standard that all cells were spread over the bottoms of culture flasks.
Cells were digested off from the bottoms of culture flasks with trypsin (0.25%). The cell dissociation buffer was transferred into centrifuge tubes, added medium to stop the digestion, and centrifuged for 3 minutes at 1300 rpm. Discarded the supernatant lightly and added fresh culture medium (5 mL). Mixed the cells by pipetting, then added 10 μL of the cell suspension into the cell counting plate, and adjusted the cell concentration to 2×10^4 cells/mL. Added 100 μL of the cell suspension to all wells on the 96 well plates, except A1 well as the blank control. Put the plates into the biochemical incubator for 24 hours and to make sure the cells grew along the walls.
The drugs were dissolved in 80 mmol/L DMSO first, and then diluted the drugs with ethanol to 8 mmol/L. The solution was further diluted with the culture medium to different concentrations as 160 μmol/L, 120 μmol/L, 80 μmol/L, 40 μmol/L, 20 μmol/L and 10 μmol/L. Added 100 μL of the drug solution to each well on the 96 well plates. Therefore, the final concentrations of the drugs that were added to the cells were 80 μmol/L, 40 μmol/L, 20 μmol/L, 10 μmol/L and 5 μmol/L, and each concentration were repeated in three parallel wells. Put the culture plates into the biochemical incubator to culture continuously for 4 days.
Added 50 μL MTT liquids (2 mg/mL) into each well, put the culture plates into the biochemical incubator for 4 h, discarded MTT liquids (TCC), added 200 μL DMSO, then oscillated for 10 minutes on the magnetic oscillator to make sure that the survived cells and the reaction product of MTT were fully dissolved. Detected and recorded the absorbance (OD) values of each well at the wavelength of 570 nm using the microplate reader. The OD values of cells without tested drugs were used as control. The cell growth inhibition rates under each drug concentration were calculated by the following formula. […] Inhibition rate of growth(%)=(1−The absorbance(OD)of cells with tested drugs/The absorbance(OD)of the blank control group)×100%
The absorbance (OD) of cells with tested drugs: OD value is measured with the test drugs.
The absorbance (OD) of the blank control group: OD value is measured without the test drugs. […]

VEGFR-2 = VEGFR-2 (Homo sapiens, UniProt P35968); experiment: VEGFR-2 inhibition rate test (kinase assay kit, colorimetric ELISA); details: concentration not given
Chain of VEGFR-2 (P35968 20-1356): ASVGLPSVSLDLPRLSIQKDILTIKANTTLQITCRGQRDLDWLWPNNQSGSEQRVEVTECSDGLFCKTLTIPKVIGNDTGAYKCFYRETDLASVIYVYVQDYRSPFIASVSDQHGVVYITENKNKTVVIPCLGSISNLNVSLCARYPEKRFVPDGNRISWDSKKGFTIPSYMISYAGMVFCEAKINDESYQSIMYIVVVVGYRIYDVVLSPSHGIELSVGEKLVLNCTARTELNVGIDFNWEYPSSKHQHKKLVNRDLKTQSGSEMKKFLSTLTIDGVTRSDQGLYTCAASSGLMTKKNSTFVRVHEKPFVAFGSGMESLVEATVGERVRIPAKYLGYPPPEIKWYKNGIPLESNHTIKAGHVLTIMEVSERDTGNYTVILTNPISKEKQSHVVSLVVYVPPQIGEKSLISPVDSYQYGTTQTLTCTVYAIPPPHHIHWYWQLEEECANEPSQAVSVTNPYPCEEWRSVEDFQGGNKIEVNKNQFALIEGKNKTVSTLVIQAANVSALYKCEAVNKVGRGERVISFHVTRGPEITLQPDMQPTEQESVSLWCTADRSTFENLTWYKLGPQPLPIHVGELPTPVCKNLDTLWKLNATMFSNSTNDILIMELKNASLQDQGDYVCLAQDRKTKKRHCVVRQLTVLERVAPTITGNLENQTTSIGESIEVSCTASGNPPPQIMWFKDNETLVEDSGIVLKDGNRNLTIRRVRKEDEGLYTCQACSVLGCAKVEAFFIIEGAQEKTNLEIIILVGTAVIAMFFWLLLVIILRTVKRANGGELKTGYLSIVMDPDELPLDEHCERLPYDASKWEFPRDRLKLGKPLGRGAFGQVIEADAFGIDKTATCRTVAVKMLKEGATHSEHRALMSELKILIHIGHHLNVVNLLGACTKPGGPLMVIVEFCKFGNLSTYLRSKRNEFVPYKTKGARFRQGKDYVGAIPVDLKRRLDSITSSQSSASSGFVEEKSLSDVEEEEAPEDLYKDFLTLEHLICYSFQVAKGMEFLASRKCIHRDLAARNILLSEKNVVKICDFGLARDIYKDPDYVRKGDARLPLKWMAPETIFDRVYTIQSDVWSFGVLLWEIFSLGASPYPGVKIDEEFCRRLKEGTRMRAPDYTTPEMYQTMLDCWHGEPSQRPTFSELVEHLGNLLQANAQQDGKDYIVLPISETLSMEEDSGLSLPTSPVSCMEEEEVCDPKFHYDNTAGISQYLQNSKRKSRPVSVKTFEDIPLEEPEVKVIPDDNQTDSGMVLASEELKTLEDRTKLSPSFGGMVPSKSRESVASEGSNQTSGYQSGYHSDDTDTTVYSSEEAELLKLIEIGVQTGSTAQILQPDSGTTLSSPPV

Kinase inhibition rate (VEGFR-2) (VEGFR-2)	Structure (SMILES)	Rat Aortic Ring Assay (10 ug/ml), result in words (Rat aortic ring)	IC50 [1]	inhibition at 10 µg/mL (Rat aortic ring)
–	CCCCOc1cc2nnnc(Nc3ccc(Cl)c(Cl)c3)c2cc1OC [Example 15, 6-methoxy-7-n-butoxy-4-(3,4-dichloroanilino)-benzo[d][1,2,3]triazine]	–	15.5 µM	~30%
–	CCOc1cc2nnnc(Nc3ccc(Cl)c(Cl)c3)c2cc1OC [Example 32, 6-methoxy-7-ethoxy-4-(3,4-dichloroanilino)-benzo[d][1,2,3]triazine]	–	14.3 µM	–
–	CCOc1cc2nnnc(Nc3ccc(Cl)cc3)c2cc1OC [Example 33, 6-methoxy-7-ethoxy-4-(4-chloroanilino)-benzo[d][1,2,3]triazine]	–	26.5 µM	–
−21.65	CCCCCOc1cc2nnnc(Nc3ccc(Cl)c(Cl)c3)c2cc1OC [Example 48, 6-methoxy-7-pentyloxy-4-(3,4-dichloroanilino)-benzo[d][1,2,3]triazine]	–	16.9 µM	–
–	CCCCCOc1cc2nnnc(Nc3ccc(Cl)cc3)c2cc1OC [Example 49, 6-methoxy-7-pentyloxy-4-(4-chloroanilino)-benzo[d][1,2,3]triazine]	–	25.3 µM	–
−0.53	CCCCCOc1cc2nnnc(Nc3ccc(F)c(Cl)c3)c2cc1OC [Example 55, 6-methoxy-7-pentyloxy-4-(3-chloro-4-fluoroanilino)benzo[d][1,2,3]triazine]	–	14.8 µM	–
−3.74	CCCCCOc1cc2nnnc(Nc3ccc(F)c(C(F)(F)F)c3)c2cc1OC [Example 56, 6-methoxy-7-pentyloxy-4-(3-trifluoromethyl-4-fluoroanilino)-benzo[d][1,2,3]triazine]	–	16.3 µM	–
−9.97	COc1cc2c(Nc3cc(Cl)cc(Cl)c3)nnnc2cc1OCCCCl [Example 63, 6-methoxy-7-chloropropoxy-4-(3,5-dichloroanilino)-benzo[d][1,2,3]triazine]	–	28.8 µM	–
–	COc1cc2c(Nc3ccc(Cl)c(Cl)c3)nnnc2cc1OCCCCl [Example 65, 6-methoxy-7-chloropropoxy-4-(3,4-dichloroanilino)-benzo[d][1,2,3]triazine]	–	11 µM	–
−10.15	COc1cc2c(Nc3ccc(Cl)cc3)nnnc2cc1OCCCCl [Example 66, 6-methoxy-7-chloropropoxy-4-(4-chloroanilino)-benzo[d][1,2,3]triazine]	–	38.6 µM	–
−14.75	COc1cc2c(Nc3cccc(OC(F)(F)F)c3)nnnc2cc1OCCCCl [Example 69, 6-methoxy-7-chloropropoxy-4-(3-trifluoromethoxyanilino)-benzo[d][1,2,3]triazine]	–	24.9 µM	–
16.65	COc1cc2c(Nc3ccc(OC(F)(F)F)cc3)nnnc2cc1OCCCCl [Example 70, 6-methoxy-7-chloropropoxy-4-(4-trifluoromethoxyanilino)-benzo[d][1,2,3]triazine]	–	23.2 µM	> 50%
2.40	COc1cc2c(Nc3ccc(F)c(C(F)(F)F)c3)nnnc2cc1OCCCCl [Example 73, 6-methoxy-7-chloropropoxy-4-(3-trifluoromethyl-4-fluoroanilino)-benzo[d][1,2,3]triazine]	–	15.2 µM	–
–	COc1cc2c(Nc3ccc(C)cc3)nnnc2cc1OCCCCl [Example 77, 6-methoxy-7-chloropropoxy-4-(4-methylanilino)-benzo[d][1,2,3]triazine]	Micro-vascular growth was significantly inhibited, affecting cell	17.1 µM	–
15.87	Clc1ccc2nnnc(Nc3ccccc3)c2n1 [Example 78, 6-chloro-4-anilino-pyrido[3,2-d][1,2,3]triazine]	No significant inhibition in the previous 3 days, but vascular ring	10.7 µM	–
–	Fc1cc(Nc2nnnc3ccc(Cl)nc23)ccc1Br [Example 79, 6-chloro-4-(3-fluoro-4-bromoanilino)-pyrido[3,2-d][1,2,3]-triazine]	Almost complete inhibition (10 μg/mL), vascular ring was dead	9.56 µM	–
–	Clc1cc(Cl)cc(Nc2nnnc3ccc(Cl)nc23)c1 [Example 80, 6-chloro-4-(3,5-dichloroanilino)pyrido[3,2-d][1,2,3]triazine]	Almost complete inhibition (10 μg/mL), vascular ring was dead.	7.93 µM	–
−6.44	Fc1cc(F)cc(Nc2nnnc3ccc(Cl)nc23)c1 [Example 81, 6-chloro-4-(3,5-difluoroanilino)pyrido[3,2-d][1,2,3]triazine]	Almost complete inhibition (10 μg/mL), vascular ring was dead.	10.3 µM	–
–	Clc1ccc2nnnc(Nc3ccc(Cl)c(Cl)c3)c2n1 [Example 82, 6-chloro-4-(3,4-dichloroanilino)pyrido[3,2-d][1,2,3]triazine]	–	9.19 µM	> 80%
–	FC(F)(F)c1ccc(Nc2nnnc3ccc(Cl)nc23)cc1 [Example 85, 6-chloro-4-(4-trifluoromethylanilino)pyrido[3,2-d][1,2,3]triazine]	No significant inhibition	8.06 µM	–
–	FC(F)(F)Oc1ccc(Nc2nnnc3ccc(Cl)nc23)cc1 [Example 87, 6-chloro-4-(4-trifluoromethoxyanilino)pyrido[3,2-d][1,2,3]triazine]	Almost complete inhibition (10 μg/mL), vascular ring was dead	11.5 µM	–
−0.25	Fc1ccc(Nc2nnnc3ccc(Cl)nc23)cc1Cl [Example 89, 6-chloro-4-(3-chloro-4-fluoroanilino)pyrido[3,2-d][1,2,3]triazine]	–	9.85 µM	–
–	Fc1ccccc1Nc1nnnc2ccc(Cl)nc12 [Example 91, 6-chloro-4-(2-fluoroanilino)pyrido[3,2-d][1,2,3]triazine]	No significant inhibition	10.8 µM	–

Structure (SMILES)	Kinase inhibition rate (VEGFR-2) (VEGFR-2)	Rat Aortic Ring Assay (10 ug/ml), result in words (Rat aortic ring)	IC50 [1]	inhibition at 10 µg/mL (Rat aortic ring)
CCCCOc1cc2nnnc(Nc3cc(Cl)cc(Cl)c3)c2cc1OC [Example 13, 6-methoxy-7-n-butoxy-4-(3,5-dichloroanilino)-benzo[d][1,2,3]triazine]	−9.89	No significant inhibition	3.17 µM	–
CCCCOc1cc2nnnc(Nc3cccc(Br)c3)c2cc1OC [Example 25, 6-methoxy-7-n-butoxy-4-(3-bromoanilino)-benzo[d][1,2,3]triazine]	5.61	–	16.8 µM	–
